According to US9302999B2, “Substituted triazoles as herbicides” (E. I. DU PONT DE NEMOURS AND COMPANY, priority 2012, dated 2016):
Like-named read-outs stand apart in the source and are kept apart here.

Key:
Format in all cases: in vivo
[1] = system: large crabgrass (Digitaria sanguinalis); test: Test C pre-/postemergence: large crabgrass
How it was run: (§1)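 Visual injury scored 0–100 (100 = complete control) against untreated controls after 13–15 greenhouse days. Surfactant-containing solvent formulations applied either to soil after sowing (loam/sand) or over 1- to 4-leaf plants, 2–18 cm tall.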

[2] = system: wheat (Triticum aestivum); test: Test A pre-/postemergence: wheat; settings: Triticum aestivum, 240 h; for plant injury at 125 g/ha: 125 g ai/ha; for plant injury at 500 g/ha: 500 g ai/ha
How it was run: (§2)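 Whole-plant greenhouse assay in loam/sand. Preemergence directed soil spray plus simultaneous postemergence spray (one- to two-leaf stage, 2–10 cm). Rated visually ~10 days later, 0 = no effect, 100 = complete control.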

[3] = system: blackgrass (Alopecurus myosuroides); test: Test C pre-/postemergence: blackgrass
How it was run: as §1

corn (Zea mays) = test: Test C pre-/postemergence: corn
How it was run: as §1

[4] = system: pigweed (Amaranthus retroflexus); test: Test A pre-/postemergence: pigweed; settings: Amaranthus retroflexus, 240 h; for pest or weed control at 125 g/ha: 125 g ai/ha; for pest or weed control at 500 g/ha: 500 g ai/ha
How it was run: as §2

[5] = system: barnyardgrass (Echinochloa crus-galli); test: Test A pre-/postemergence: barnyardgrass; settings: Echinochloa crus-galli, 240 h; for pest or weed control at 125 g/ha: 125 g ai/ha; for pest or weed control at 500 g/ha: 500 g ai/ha
How it was run: as §2

[6] = system: morningglory (Ipomoea coccinea); test: Test C pre-/postemergence: morningglory
How it was run: as §1

[7] = system: lambsquarters (Chenopodium album); test: Test C pre-/postemergence: lambsquarters
How it was run: as §1

[8] = system: nutsedge, yellow (yellow nutsedge, Cyperus esculentus); test: Test C pre-/postemergence: nutsedge, yellow
How it was run: as §1

[9] = system: crabgrass, large (large crabgrass, Digitaria sanguinalis); test: Test A pre-/postemergence: crabgrass, large; settings: Digitaria sanguinalis, 240 h; for pest or weed control at 125 g/ha: 125 g ai/ha; for pest or weed control at 500 g/ha: 500 g ai/ha
How it was run: as §2

[10] = system: foxtail, giant (giant foxtail, Setaria faberii); test: Test C pre-/postemergence: foxtail, giant
How it was run: as §1

[11] = Postemergence, 31 g ai/ha, scale 0 to 100 (0 no effect, 100 complete control)
[12] = Postemergence, 62 g ai/ha, scale 0 to 100 (0 no effect, 100 complete control)
[13] = Postemergence, 125 g ai/ha, scale 0 to 100, 0 no effect, 100 complete control
[14] = Postemergence, 250 g ai/ha, scale 0 to 100
[15] = Preemergence, 31 g ai/ha, scale of 0 to 100, 0 is no effect, 100 is complete control
[16] = Preemergence, 62 g ai/ha, scale of 0 to 100, 0 is no effect, 100 is complete control
[17] = Preemergence, 125 g ai/ha, scale 0 to 100, 0 no effect, 100 complete control
[18] = Preemergence, 250 g ai/ha, scale 0 to 100, 0 no effect, 100 complete control
[19] = Preemergence, 62 g ai/ha, scale 0 to 100, 0 no effect, 100 complete control

With `FC(F)(F)COc1nn(-c2ccc(C(F)(F)F)cc2)nc1Cc1ccnc(C(F)(F)F)c1` [Compound 14, 4-[[5-(2,2,2-trifluoroethoxy)-2-[4-(trifluoromethyl)phenyl]-2H-1,2,3-triazol-4-yl]methyl]-2-(trifluoromethyl)pyridine] as the molecule, how does the “Plant response rating, Crabgrass, Large” value [1, 11] read?
Its value is 10.

And the “Plant response rating, Crabgrass, Large” value [1, 12]?
Its value is 45.

And the “Plant response rating, Crabgrass, Large” value [1, 13]?
The value was 45.

What about the “Plant response rating, Crabgrass, Large” value [1, 14] of the same molecule?
The value was 60.

What about the “Plant response rating, Crabgrass, Large” value [1, 15] of the same molecule?
Its value is 95.

And the “Plant response rating, Crabgrass, Large” value [1, 16]?
The value was 100.

What about the “Plant response rating, Crabgrass, Large” value [1, 17] of the same molecule?
Its value is 100.

And the “Plant response rating, Crabgrass, Large” value [1, 18]?
The value was 100.

What about the plant injury at 125 g/ha ([2]; post-emergence, Postemergence, 0 to 100 scale, 0 is no effect, 100 is complete control, read-out: Wheat plant response rating) of the same molecule?
The plant injury at 125 g/ha was 30%.

And the plant injury at 500 g/ha ([2]; post-emergence, Postemergence, visual rating on 0 to 100 scale (0 no effect, 100 complete control), approximately ten days, read-out: Wheat plant response rating)?
Its plant injury at 500 g/ha is 50%.

And the plant injury at 125 g/ha ([2]; pre-emergence, Preemergence, 0 to 100 scale (0 no effect, 100 complete control), read-out: Plant response rating, Wheat)?
The plant injury at 125 g/ha was 30%.

What about the plant injury at 500 g/ha ([2]; pre-emergence, Preemergence, 0 to 100 scale, 0 is no effect, 100 is complete control, read-out: Plant response rating, Wheat) of the same molecule?
Its plant injury at 500 g/ha is 50%.

What about the “Plant response rating, Blackgrass” value [3, 11] of the same molecule?
Its value is 15.

And the “Plant response rating, Blackgrass” value [3, 12]?
Its value is 40.

What about the “Plant response rating, Blackgrass” value [3, 13] of the same molecule?
Its value is 60.

What about the “Plant response rating, Blackgrass” value [3, 14] of the same molecule?
The value was 85.

What about the “Plant response rating, Blackgrass” value [3, 15] of the same molecule?
The value was 5.

And the “Plant response rating, Blackgrass” value [3, 19]?
Its value is 40.

And the “Plant response rating, Blackgrass” value [3, 17]?
The value was 85.

And the “Plant response rating, Blackgrass” value [3, 18]?
The value was 98.

And the “Plant response rating, Corn” value (corn (Zea mays); [11])?
Its value is 5.

And the “Plant response rating, Corn” value (corn (Zea mays); [12])?
The value was 10.

And the “Plant response rating, Corn” value (corn (Zea mays); [13])?
The value was 15.

What about the “Plant response rating, Corn” value (corn (Zea mays); [14]) of the same molecule?
The value was 15.

And the “Plant response rating, Corn” value (corn (Zea mays); [15])?
The value was 0.

And the “Plant response rating, Corn” value (corn (Zea mays); [19])?
Its value is 0.

And the “Plant response rating, Corn” value (corn (Zea mays); [17])?
Its value is 5.

What about the “Plant response rating, Corn” value (corn (Zea mays); [18]) of the same molecule?
Its value is 10.

And the pest or weed control at 125 g/ha ([4]; post-emergence, Postemergence, 0 to 100 scale, 0 is no effect, 100 is complete control, read-out: Pigweed plant response rating)?
Its pest or weed control at 125 g/ha is 100%.

And the pest or weed control at 500 g/ha ([4]; post-emergence, Postemergence, visual rating on 0 to 100 scale (0 no effect, 100 complete control), approximately ten days, read-out: Pigweed plant response rating)?
Its pest or weed control at 500 g/ha is 100%.

What about the pest or weed control at 125 g/ha ([4]; pre-emergence, Preemergence, 0 to 100 scale (0 no effect, 100 complete control), read-out: Plant response rating, Pigweed) of the same molecule?
The pest or weed control at 125 g/ha was 90%.

And the pest or weed control at 500 g/ha ([4]; pre-emergence, Preemergence, 0 to 100 scale, 0 is no effect, 100 is complete control, read-out: Plant response rating, Pigweed)?
Its pest or weed control at 500 g/ha is 100%.

And the pest or weed control at 125 g/ha ([5]; post-emergence, Postemergence, 0 to 100 scale, 0 is no effect, 100 is complete control, read-out: Barnyardgrass plant response rating)?
Its pest or weed control at 125 g/ha is 80%.

And the pest or weed control at 500 g/ha ([5]; post-emergence, Postemergence, visual rating on 0 to 100 scale (0 no effect, 100 complete control), approximately ten days, read-out: Barnyardgrass plant response rating)?
The pest or weed control at 500 g/ha was 90%.

And the pest or weed control at 125 g/ha ([5]; pre-emergence, Preemergence, 0 to 100 scale (0 no effect, 100 complete control), read-out: Plant response rating, Barnyardgrass)?
The pest or weed control at 125 g/ha was 70%.

And the pest or weed control at 500 g/ha ([5]; pre-emergence, Preemergence, 0 to 100 scale, 0 is no effect, 100 is complete control, read-out: Plant response rating, Barnyardgrass)?
The pest or weed control at 500 g/ha was 90%.

What about the “Plant response rating, Morningglory” value [6, 11] of the same molecule?
Its value is 75.

What about the “Plant response rating, Morningglory” value [6, 12] of the same molecule?
Its value is 80.

And the “Plant response rating, Morningglory” value [6, 13]?
The value was 80.

What about the “Plant response rating, Morningglory” value [6, 14] of the same molecule?
Its value is 95.

What about the “Plant response rating, Morningglory” value [6, 15] of the same molecule?
The value was 10.

What about the “Plant response rating, Morningglory” value [6, 16] of the same molecule?
Its value is 10.

What about the “Plant response rating, Morningglory” value [6, 17] of the same molecule?
Its value is 55.

And the “Plant response rating, Morningglory” value [6, 18]?
Its value is 65.

What about the “Plant response rating, Lambsquarters” value [7, 11] of the same molecule?
The value was 100.

What about the “Plant response rating, Lambsquarters” value [7, 12] of the same molecule?
Its value is 100.

What about the “Plant response rating, Lambsquarters” value [7, 13] of the same molecule?
The value was 100.

And the “Plant response rating, Lambsquarters” value [7, 14]?
The value was 100.

What about the “Plant response rating, Lambsquarters” value [7, 15] of the same molecule?
The value was 95.

What about the “Plant response rating, Lambsquarters” value [7, 16] of the same molecule?
The value was 100.

And the “Plant response rating, Lambsquarters” value [7, 17]?
Its value is 100.

And the “Plant response rating, Lambsquarters” value [7, 18]?
Its value is 100.

And the “Plant response rating, Nutsedge, Yellow” value [8, 11]?
Its value is 0.

What about the “Plant response rating, Nutsedge, Yellow” value [8, 12] of the same molecule?
Its value is 0.

What about the “Plant response rating, Nutsedge, Yellow” value [8, 13] of the same molecule?
The value was 0.

And the “Plant response rating, Nutsedge, Yellow” value [8, 14]?
Its value is 0.

And the “Plant response rating, Nutsedge, Yellow” value [8, 15]?
The value was 0.

What about the “Plant response rating, Nutsedge, Yellow” value [8, 16] of the same molecule?
Its value is 0.

And the “Plant response rating, Nutsedge, Yellow” value [8, 17]?
The value was 0.

What about the “Plant response rating, Nutsedge, Yellow” value [8, 18] of the same molecule?
Its value is 0.

And the pest or weed control at 125 g/ha ([9]; post-emergence, Postemergence, 0 to 100 scale, 0 is no effect, 100 is complete control, read-out: Crabgrass, Large plant response rating)?
The pest or weed control at 125 g/ha was 80%.

What about the pest or weed control at 500 g/ha ([9]; post-emergence, Postemergence, visual rating on 0 to 100 scale (0 no effect, 100 complete control), approximately ten days, read-out: Crabgrass, Large plant response rating) of the same molecule?
The pest or weed control at 500 g/ha was 90%.

What about the pest or weed control at 125 g/ha ([9]; pre-emergence, Preemergence, 0 to 100 scale (0 no effect, 100 complete control), read-out: Plant response rating, Crabgrass, Large) of the same molecule?
The pest or weed control at 125 g/ha was 90%.

What about the pest or weed control at 500 g/ha ([9]; pre-emergence, Preemergence, 0 to 100 scale, 0 is no effect, 100 is complete control, read-out: Plant response rating, Crabgrass, Large) of the same molecule?
Its pest or weed control at 500 g/ha is 100%.

And the “Plant response rating, Foxtail, Giant” value [10, 11]?
Its value is 10.

What about the “Plant response rating, Foxtail, Giant” value [10, 12] of the same molecule?
Its value is 15.

And the “Plant response rating, Foxtail, Giant” value [10, 13]?
Its value is 30.

And the “Plant response rating, Foxtail, Giant” value [10, 14]?
The value was 35.

And the “Plant response rating, Foxtail, Giant” value [10, 15]?
The value was 95.

And the “Plant response rating, Foxtail, Giant” value [10, 16]?
The value was 98.

And the “Plant response rating, Foxtail, Giant” value [10, 17]?
The value was 100.

What about the “Plant response rating, Foxtail, Giant” value [10, 18] of the same molecule?
Its value is 100.
